US20220144812A1, “QUINOLINE DERIVATIVES AND THEIR USE FOR THE TREATMENT OF CANCER” (Epizyme, Inc., priority 2019, published 2022)
Where two headings read alike, the source gives them in different places.

What was measured:
[1] = tested on: H3K18Ac in HB-CLS-2 cells; test: H3K18AC in-cell western (ICW) assay; format: cell-based; details: read-out: CREBBP ICW IC50
In short: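 In-cell western: after methanol fixation, blocking, overnight 4° C anti-H3K18Ac staining, then 800CW secondary plus DRAQ5 for DNA content, integrated intensities were scanned at 800 and 700 nm. Before this, compound exposure lasted 2 hr at 37° C in HB-CLS-2 cells plated 16–24 hours earlier. Values expressed as IC50 (μM).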

647V cells = test: High throughput proliferation (HTP) assay; format: cell-based; details: read-out: CREBBP HTP IC50
Source text: The following example describes methods and materials relating to a high throughput proliferation (HTP) assay. IC50 values (micromolar) are summarized in Table 1, Table 2, and Table 3 under the column labeled: “CREBBP HTP IC50 (micromolar).”
MATERIALS: 647V cell line, Dulbecco's MEM, penicillin-streptomycin, heat inactivated fetal bovine serum, D-PBS, and CellTiter-Glo were commercially available.
647V adherent cells were maintained in complete growth medium (Dulbecco's MEM supplemented with 15% v/v heat inactivated fetal bovine serum) and cultured at 37° C. under 5% CO2.
METHOD: Measurement of the effect of compound in High Throughput Proliferation (HTP) assays was performed as follows: Exponentially growing 647V cells were plated, in triplicate, in 384-well plates at the appropriate cell density in a final volume of 50 μl. Cells were incubated in the presence of increasing concentrations of compound. Viable cell number was determined at day 7 by addition of 35 μl CellTiter-Glo to each well of the plate, incubated in the dark for 30 minutes, and read on a PerkinElmer EnVision instrument to enumerate the number of cells.

CREBBP (1084-1701) = target: T1, CREBBP (1084-1701) (Homo sapiens, UniProt Q92793); test: Biochemical assay for CREBBP (1084-1701), SAMDI; details: SAMDI, read-out: CREBBP Biochemistry IC50
T1 construct: measured in the following biochemical assay using CREBBP (1084-1701); purchased
T1 sequence (Q92793 1084-1701): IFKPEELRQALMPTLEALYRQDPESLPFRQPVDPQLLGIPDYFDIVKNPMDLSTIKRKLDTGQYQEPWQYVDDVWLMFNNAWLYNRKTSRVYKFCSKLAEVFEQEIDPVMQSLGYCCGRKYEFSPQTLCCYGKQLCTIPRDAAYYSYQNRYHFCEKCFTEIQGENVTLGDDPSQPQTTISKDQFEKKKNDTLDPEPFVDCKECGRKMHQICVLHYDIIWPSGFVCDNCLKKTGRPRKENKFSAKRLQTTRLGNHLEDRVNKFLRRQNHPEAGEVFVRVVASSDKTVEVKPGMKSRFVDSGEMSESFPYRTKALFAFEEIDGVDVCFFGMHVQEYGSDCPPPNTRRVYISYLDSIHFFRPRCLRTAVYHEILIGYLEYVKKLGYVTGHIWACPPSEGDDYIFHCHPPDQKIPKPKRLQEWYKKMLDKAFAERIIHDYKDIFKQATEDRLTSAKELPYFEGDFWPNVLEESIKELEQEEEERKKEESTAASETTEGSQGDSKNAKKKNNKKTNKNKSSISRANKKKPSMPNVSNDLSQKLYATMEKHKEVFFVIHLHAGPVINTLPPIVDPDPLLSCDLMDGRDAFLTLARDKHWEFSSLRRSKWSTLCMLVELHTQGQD
In short: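 Acetyltransferase activity measured by SAMDI mass spectrometry after capture on biochip. Enzyme sat with compound 30 min at RT before acetyl-CoA and biotinylated H3 11-25 (K14R, K23R) peptide were added for 30 min at RT. Formic acid quench, bicarbonate neutralisation; IC50 values reported.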

EP300 (P300(1048-1664)) = target: T2, EP300 (P300(1048-1664)) (Homo sapiens, UniProt Q09472); test: Biochemical assay for EP300, SAMDI; details: EP300, SAMDI; read-out: EP300 Biochemistry IC50
T2 construct: P300(1048-1664)
T2 sequence (Q09472 1048-1664): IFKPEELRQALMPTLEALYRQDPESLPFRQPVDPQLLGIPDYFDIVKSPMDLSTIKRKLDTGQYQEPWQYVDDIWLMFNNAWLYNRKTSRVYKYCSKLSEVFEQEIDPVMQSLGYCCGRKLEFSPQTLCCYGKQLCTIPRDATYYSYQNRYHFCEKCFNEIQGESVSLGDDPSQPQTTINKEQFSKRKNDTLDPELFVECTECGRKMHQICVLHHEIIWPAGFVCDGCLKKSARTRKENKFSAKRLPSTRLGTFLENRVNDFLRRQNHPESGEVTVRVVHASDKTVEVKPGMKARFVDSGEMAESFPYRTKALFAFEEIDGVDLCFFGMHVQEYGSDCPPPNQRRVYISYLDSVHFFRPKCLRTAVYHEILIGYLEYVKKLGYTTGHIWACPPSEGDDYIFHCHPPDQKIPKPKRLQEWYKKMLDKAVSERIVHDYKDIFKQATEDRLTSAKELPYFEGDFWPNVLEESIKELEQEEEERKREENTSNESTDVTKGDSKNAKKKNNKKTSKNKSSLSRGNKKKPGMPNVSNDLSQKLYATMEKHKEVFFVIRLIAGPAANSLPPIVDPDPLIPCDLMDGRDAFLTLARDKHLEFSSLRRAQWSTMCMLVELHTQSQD
Source text: The following example describes materials and methods relating to a biochemical assay for EP300. IC50 values (micromolar (μM)) are summarized in Table 1, Table 2, and Table 3 under the column labeled: “EP300 Biochemistry IC50 (micromolar).”

[2] = Homo sapiens, 647-V, high throughput proliferation
[3] = H3K18Ac in-cell western, HB-CLS-2 cells
[4] = high throughput proliferation, 647V cells
[5] = Homo sapiens, 647-V, high throughput proliferation, 647V cells

Row | SMILES | IC50 ([1]; H3K18Ac in-cell western) [µM] | IC50 (647V cells; [2]) [µM] | IC50 (CREBBP (1084-1701)) [µM] | IC50 (EP300 (P300(1048-1664))) [µM] | IC50 [1, 3] [µM] | other results
1 | CCn1ncc(CN(C)C(=O)c2nc(-c3ccc(OCCCNC)c(C)c3)nc3ccc(Cl)cc23)c1C [Compound 29] | 0.23 | 0.1 | 0.028 |  |  | 
2 | CCn1ncc(CN(C)C(=O)c2nc(-c3ccc(OCCCNC)c(C)c3)nc3ccc(Cl)cc23)c1C [Compound 36] | 0.3 |  | 0.052 |  |  | IC50 (647V cells; high throughput proliferation): 0.18 µM
3 | CCn1ncc(CN(C)C(=O)c2nc(-c3ccc4c[nH]nc4c3Cl)nc3ccc(COC)cc23)c1C [Compound 52] | 0.52 | 0.69 | 0.25 |  |  | 
4 | CCn1ncc(CN(C)C(=O)c2nc(-c3ccc4c[nH]nc4c3Cl)nc3ccc(COC)cc23)c1C [Compound 68] | 0.8 |  | 0.25 |  |  | IC50 (647V cells; high throughput proliferation): 0.69 µM
5 | CCn1ncc(CN(C)C(=O)c2nc(-c3cccc(Cl)c3)nc3ccc(Cl)cc23)c1C [Compound 71] | 0.92 | 1.2 | 0.0094 |  |  | 
6 | CCn1ncc(CN(C)C(=O)c2cc(-c3ccccc3C#N)nc3ccc(Cl)cc23)c1C [Compound 81] | 1.2 | 2.2 | 1.8 |  |  | 
7 | CCn1ncc(CN(C)C(=O)c2cc(-c3ccccc3F)nc3ccc(Cl)cc23)c1C [Compound 86] | 1.3 | 1.4 | 0.71 |  |  | 
8 | CCn1ncc(CN(C)C(=O)c2cc(-c3ccccn3)nc3ccc(Cl)cc23)c1C [Compound 92] | 1.7 | 0.41 | 0.31 |  |  | 
9 | CCn1ncc(CN(C)C(=O)c2cc(-c3cccc(Cl)c3)nc3ccc(Cl)cc23)c1C [Compound 106] | 2.4 | 2.6 | 0.31 |  |  | 
10 | CCn1ncc(CN(C)C(=O)c2nc(-c3cccc(Cl)c3)nc3ccccc23)c1C [Compound 130] | 4.7 | 6.5 | 2 |  |  | 
11 | Cc1c(CN(C)C(=O)c2cc(-c3cccc(Cl)c3)nc3ccc(Cl)cc23)cnn1C(C)C [Compound 132] | 4.9 | 2.2 | 0.31 |  |  | 
12 | CCn1ncc(CN(C)C(=O)c2nc(-c3cncn3C)nc3ccc(Cl)cc23)c1C [Compound 158] | 9.8 |  | 14 |  |  | IC50 (647V cells; high throughput proliferation): 6.6 µM
13 | CCN(Cc1cnn(CC)c1C)C(=O)c1cc(-c2cccc(Cl)c2)nc2ccc(Cl)cc12 [Compound 175] | 15 | 9.4 | 5.3 |  |  | 
14 | CCn1ncc(CN(C)C(=O)c2nc(-c3ccc(OCCCN(C)C(=O)OC(C)(C)C)c(C)c3)nc3ccc(Cl)cc23)c1C [Compound 183] |  |  | 18 | 42 |  | IC50 (647V cells; high throughput proliferation): 8.7 µM
15 | CCn1ncc(CN(C)C(=O)c2nc(-c3ccn(CCCN4CCCC4)n3)nc3ccc(Cl)cc23)c1C [Compound 184] |  |  |  | 163 |  | IC50 (647V cells; high throughput proliferation): 15 µM
16 | CCn1ncc(CN(C)C(=O)c2nc(N3CCn4ncnc4C3)nc3ccc(Cl)cc23)c1C [Compound 190] | 20 | 20 |  | 103 |  | 
17 | CCn1ncc(CN(C)C(=O)c2nc(-c3cccc(Cl)c3)nc3cc(N4CCOCC4)c(Cl)cc23)c1C [Compound 200] |  |  | 190 | 126 | 20 | 

Row | SMILES | IC50 ([1]; H3K18Ac in-cell western) [µM] | IC50 (647V cells; [2]) [µM] | IC50 (CREBBP (1084-1701)) [µM] | IC50 (EP300 (P300(1048-1664))) [µM] | IC50 [1, 3] [µM] | other results
18 | CCn1ncc(CN(C)C(=O)c2nc(N3CCNCC3)nc3ccc(Cl)cc23)c1C [Compound 202] |  |  |  | 175 | 20 | 
19 | CCn1ncc(CN(C)C(=O)c2nc(-c3ccccc3Cl)nc3c(C#N)cccc23)c1C [Compound 211] |  |  | 32 | 17 |  | IC50 (647V cells; [4]): 15 µM
20 | CCn1ncc(CN(C)C(=O)c2nc(-c3cc(C(=O)NC)on3)nc3ccc(Cl)cc23)c1C [Compound 215] |  |  |  | 41 | 20 | 
21 | CCn1ncc(CN(C)C(=O)c2nc(-c3cn(CCNC)cn3)nc3ccc(Cl)cc23)c1C [Compound 228] |  |  |  | 140 | 20 | IC50 (647V cells; [5]): 20 µM
22 | Cc1c(CN(C)C(=O)c2nc(-c3cc(Cl)cc(CNC4CCCCC4)c3)nc3ccc(Cl)cc23)cnn1CO [Compound 236] |  |  |  | 13 | 20 | 
23 | CCn1ncc(CN(C)C(=O)c2nc(-c3cnc(CNC(C)=O)n3C)nc3ccc(Cl)cc23)c1C [Compound 237] |  |  |  | 50 |  | 
24 | CCn1ncc(CN(C)C(=O)c2nc(-c3cn(CCCNC)cn3)nc3ccc(Cl)cc23)c1C [Compound 247] |  |  |  | 157 | 20 | IC50 (647V cells; [5]): 20 µM
25 | Cc1n[nH]c(C)c1CN(C)C(=O)c1nc(-c2cccc(Cl)c2)nc2ccc(Cl)cc12 [Compound 248] |  |  |  | 114 | 20 | IC50 (647V cells; [5]): 19 µM
26 | CCn1ncc(CN(C)C(=O)c2nc(-c3ccccc3Cl)nc3ccccc23)c1C [Compound 284] |  |  | 13 |  | 15 | IC50 (647V cells; [5]): 8.5 µM
27 | CCn1ncc(CN(C)C(=O)c2cc(-c3cnn[nH]3)nc3ccc(Cl)cc23)c1C [Compound 307] |  |  |  | 8 |  | 
28 | CCn1ncc(CN(C)C(=O)c2nc(-c3cc(C(=O)NC)nn3C)nc3ccc(P(C)(C)=O)cc23)c1C [Compound 393] |  |  | 50 | 50 |  | IC50 (647V cells; [4]): 8.6 µM
29 | CCn1ncc(CN(C)C(=O)c2cc(-c3cc(C)nc(C)n3)nc3ccc(Cl)cc23)c1C [Compound 411] |  |  | 50 | 50 |  | 
30 | CCn1ncc(CN(C)C(=O)c2nc(-c3cc(C)c4cn[nH]c4c3)nc3ccc(Cl)cc23)c1C [Compound 412] |  |  |  | 0.13 | 0.25 | IC50 (647V cells; [5]): 0.15 µM
31 | CCn1ncc(CN(C)C(=O)c2nc(-c3ccc(OCCNC(=O)C(C)C)c(Cl)c3)nc3ccc(Cl)cc23)c1C [Compound 416] |  |  |  | 0.18 | 0.4 | IC50 (647V cells; [5]): 0.4 µM
32 | CCn1ncc(CN(C)C(=O)c2nc(-c3cc(C(=O)NC)n(C)n3)nc3ccc(COC)cc23)c1C [Compound 630] | 0.341 |  | 0.149 | 0.072 |  | 
33 | CCc1ncc(CN(C)C(=O)c2cc(-c3ccc(NCC(O)CN(C)C)c(C)n3)nc3ccc(COC)cc23)n1C (centres unmarked) [Compound 644] |  |  |  |  |  | IC50 ([1]; 2 h, H3K18Ac in HB-CLS-2 cells, 2 hrs compound incubation): 0.701 µM; IC50 (647V cells; Homo sapiens, 647-V, 168 h, 647V cells, day 7, CellTiter-Glo): 0.269 µM
